In patent publication US5240927A, “Benzo[β]thiophen-3-yl piperazines as antipsychotic agents” (Hoechst-Roussel Pharmaceuticals Incorporated, priority 1992, dated 1993):
Like-named read-outs stand apart in the source and are kept apart here.

Test system: apomorphine-induced climbing
Assay: Climbing Mice Assay (block of apomorphine-induced climbing)
Assay type: in vivo, CK-1 male mice
Settings: Mus musculus, ip, read-out: Antipsychotic Activity (Climbing Mice Assay) ED50
Method: The subject CK-1 male mice (23-27 grams) are group-housed under standard laboratory conditions. The mice are individually placed in wire mesh stick cages (4"×4" 10) and are allowed one hour for adaptation and exploration of the new environment.
For evaluation of climbing, three readings are taken at 10, 20 and 30 minutes after apomorphine administration according to the following scale: […]
Mice consistently climbing before the injection of apormorphine are discarded.
With full-developed apomorphine climbing, the animals are hanging onto the cage walls, rather motionless, over longer periods of time. By contrast, climbs due to mere motor stimulation usually last only a few seconds.
The climbing scores are individually totaled (maximal score; 6 per mouse over three readings) and the total score of the control group (vehicle intraperitioneally-apomorphine subcutaneously) is set to 100%.

Structure (SMILES)	ED50 (CK-1 male mice, compound i.p. 30 minutes prior to apomorphine 1.5 mg/kg s.c., readings at 10, 20 and 30 minutes, linear regression)	ED50
COc1cc(C(C)=O)ccc1OCCCN1CCN(c2csc3cc(F)ccc23)CC1 [1-[4-[3-[4-(6-Fluorobenzo[b]thiophen-3-yl)-1-piperazinyl]propoxy]-3-methoxyphenyl]ethanone]	1.42 mg/kg	–
O=C(CCCN1CCC(O)(c2ccc(Cl)cc2)CC1)c1ccc(F)cc1 [Haloperidol]	–	0.33 mg/kg
